The test has as its target T1, PPARγ (Homo sapiens, UniProt P37231).
T1 construct: Following the challenge of the preadipocytes, cells may be lysed with lysis buffer; endogenous in cells; host or cells: preadipocytes
T1 sequence (P37231 1-505): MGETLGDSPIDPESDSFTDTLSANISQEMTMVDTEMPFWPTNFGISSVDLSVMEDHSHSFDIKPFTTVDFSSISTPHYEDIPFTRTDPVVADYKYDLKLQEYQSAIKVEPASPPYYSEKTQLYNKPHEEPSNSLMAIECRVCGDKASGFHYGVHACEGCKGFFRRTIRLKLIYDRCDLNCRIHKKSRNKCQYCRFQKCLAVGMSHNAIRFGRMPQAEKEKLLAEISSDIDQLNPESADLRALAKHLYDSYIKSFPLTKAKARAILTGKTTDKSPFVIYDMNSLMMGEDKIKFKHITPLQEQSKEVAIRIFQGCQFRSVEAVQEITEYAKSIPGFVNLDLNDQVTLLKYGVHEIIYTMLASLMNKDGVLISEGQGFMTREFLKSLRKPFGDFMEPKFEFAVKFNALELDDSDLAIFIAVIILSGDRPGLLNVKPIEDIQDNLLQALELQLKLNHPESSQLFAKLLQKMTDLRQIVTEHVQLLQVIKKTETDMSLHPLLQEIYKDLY
Nature of the test: aP2 Assay for PPAR gamma Agonists (bDNA aP2 mRNA in preadipocytes). The format is cell-based. Particulars: values in square brackets. From the text:
aP2 Assay for PPAR gamma Agonists
The procedure is described in detail in Burris et al., Molecular Endocrinology, 1999, 13:410, which is hereby incorporated by reference in its entirety, and aP2 assay results of agonist intrinsic activity may be presented as fold increase over vehicle in induction of aP2 mRNA production.
Twenty-four hours after the initial seeding of the 96-well plates by hand (around 20,000/well), the differentiation assay may be initiated. Medium may be removed and replaced with […] of differentiation medium containing vehicle (DMSO) or test compounds. Cells may be returned to incubator for 24 hours culture. At the termination of the challenge, medium may be removed and 100 ul of lysis buffer may be added to initiate the bDNA aP2 mRNA assay. The branched DNA assay may be performed according to the manufacturer's protocol (Bayer Diagnostics; Emeryville, Calif.). Result may be expressed as the fold increase of aP2 mRNA production activated over vehicle controls. EC50's and Emax may be determined by non-linear regression with a sigmoidal fit curve.
Following the challenge of the preadipocytes, cells may be lysed with lysis buffer (Bayer Diagnostics) containing the aP2 oligonucleotides. After a 15 minute incubation at 53° C. or 30 minutes at 37° C. incubator, 70 ul of the lysis buffer from each well may be added to a corresponding capture well (preincubated with 70 ul of blocking buffer (Bayer Diagnostics)). The capture plate may be incubated overnight at 53° C. in a plate incubator (Bayer Diagnostics). After this incubation, the bDNA and labeled probes may be annealed as directed by the manufacturer. Following a 30-minute incubation with the luminescent alkaline phosphatase substrate, dioxitane, the luminescence may be quantitated in a Dynex MLX microtiter plate luminometer. Oligonucleotide probes designed to anneal to the aP2 mRNA and function in the bDNA mRNA detection system are designed with ProbeDesigner software (Bayer Diagnostics). This software package analyzes a target sequence of interest with a series of algorithms in order to determine which regions of the sequence can perform as locations for capture, label, or spacer probe annealing. The sequences of the oligonucleotides are as follows: […]

A word on the EC50: it is the concentration giving half of the maximal effect. A low value points to an effect from little substance.

Molecules are shown by their SMILES.

Compound `CCN(C(=O)Nc1ccc(OC(F)(F)F)cc1)C1CCc2cc(SC(C)(C)C(=O)O)c(F)cc2C1` (stereo not shown) [Example 50, 2-{6-[1-Ethyl-3-(4-trifluoromethoxyphenyl)ureido]-3-fluoro-5,6,7,8-tetrahydronaphthalen-2-ylsulfanyl}-2-methylpropionic acid] displayed an EC50 of more than 3 µM.

(Values after patent US20040171680A1, “Treating Syndrome X with substituted tetralins and indanes” (priority 2002, published 2004).)
